Data: patent US20040138285A1, “Chondrogenesis promoters” (priority 2001, published 2004)

How the values were obtained:
[1] = tested on: rat articular chondrocytes; test: Cartilage matrix production promoting effect of compound A and PD98059 (alcian blue staining), Example 2; assay type: cell-based; conditions: one week; for ratio of alcian blue positive cells (photomicrograph after alcian blue staining): compound A 2×10^−6 mol/L or PD98059 5×10^−5 mol/L alone, vs vehicle control (FIG. 7); for production of the cartilage matrix (alcian blue staining intensity, absorption at 595 nm): each agent alone (compound A 2×10^−6 mol/L; PD98059 5×10^−5 mol/L), vs vehicle control, p<0.05 (FIG. 8)
Experimental: A 5-week-old male SD rat (Charles River Japan Corp.) was euthanized, and thereafter the femur was removed therefrom, and the articular cartilage layer was stripped off from the knee joint surface of the femur with a scalpel. The articular cartilage obtained was treated with 0.15% trypsin (DIFCO Lab.)/0.05% EDTA (Nacalai Tesque, Inc.) at 37° C. for one hour, and thereafter the matrix was decomposed while being agitated at 37° C. in 0.15% collagenase (WORTHINGTON Corp.) for three hours, thereby obtaining a cell suspension. The cartilage cells obtained were seeded at the cell density of 20000 per well in a 24-well culturing plate (Falcon Corp.) coated with type I collagen (Nitta Gelatin Inc.) and were cultured in a Dulbecco's modified Eagle medium (Gibco) containing 10% fetal bovine serum (REHATUIN) and antibiotic-antimycotic (Gibco) (Calcif. Tissue Int. 19: 179-187, 1975). After achievement of the confluent state of cells, 50 μg/mL ascorbic acid (Wako Pure Chemical Industries) was added to the medium, and either or both of 2×10^−6 mol/L compound A and 2×10^−6 to 5×10^−5 mol/L compound with MEK1 inhibitory activity PD98059 (New England Biolab) were further added thereto, followed by culture for one week. 0.12% DMSO (JUNSEI CHEMICAL CO., LTD) was used as a solvent vehicle control. The medium was replaced every two to three days and the above agents were added every replacement.
After completion of the culture, the cell layer was fixed at room temperature in 4% paraformaldehyde solution (Wako Pure Chemical Industries) for two hours and then washed with distilled water and 5% acetic acid of pH 1.0, and thereafter the cartilage matrix was stained at room temperature with alcian blue of pH 1.0 (Wako Pure Chemical Industries) for two hours. The cell layer was washed with 5% acetic acid and distilled water and then dried, 6 mol/L guanidine hydrochloride (Nacalai Tesque, Inc.) was added to the cell layer to extract the dye therefrom, and absorption was measured at 595 nm with the Microplate reader (BioRad).

[2] = tested on: rat articular chondrocytes; test: Cartilage matrix production promoting effect of compound A and U0126 (alcian blue staining, phase contrast morphology), Example 1; assay type: cell-based
Experimental: A 5-week-old male SD rat (Charles River Japan Corp.) was euthanized, and thereafter the femur was removed therefrom, and the articular cartilage layer was stripped off from the knee joint surface of the femur with a scalpel. The articular cartilage obtained was treated with 0.15% trypsin (DIFCO Lab.)/0.05% EDTA (KANTO KAGAKU CORP.) at 37° C. for one hour, and thereafter the matrix was decomposed while being agitated at 37° C. in 0.15% collagenase (WORTHINGTON Corp.) for three hours, thereby obtaining a cell suspension. […] 0.12% DMSO (Wako Pure Chemical Industries) was used as a solvent vehicle control. The medium was replaced every two to three days and the above agents were added every replacement.
After completion of the culture, the cell layer was fixed at room temperature in 4% paraformaldehyde solution (Wako Pure Chemical Industries) for two hours and then washed with distilled water and 5% acetic acid of pH 1.0, and thereafter the cartilage matrix was stained at room temperature with alcian blue of pH 1.0 (Wako Pure Chemical Industries) for two hours. The cell layer was washed with 5% acetic acid and distilled water and then dried, 6 mol/L guanidine hydrochloride (Nacalai Tesque, Inc.) was added to the cell layer to extract the dye therefrom, and the absorption was measured at 630 nm with a Microplate reader (BioRad).

SMILES	ratio of alcian blue positive cells (photomicrograph after alcian blue staining) [1]	production of the cartilage matrix (alcian blue staining intensity, absorption at 595 nm) [1]	production of the matrix and morphology of chondrocytes (phase contrast photomicrograph) ([2]; compound A 2×10^−6 mol/L alone, cultured one week, vs vehicle control 0.12% DMSO (FIG. 2))	production of the cartilage matrix (alcian blue staining intensity, absorption at 630 nm) ([2]; each agent alone (compound A 5×10^−7 to 2×10^−6 mol/L; U0126 1×10^−7 to 1×10^−5 mol/L), one week, vs vehicle control, p<0.05 (FIGS. 5 and 6))
COc1cccc(-c2cc(=O)c3ccccc3o2)c1N [PD98059, reference compound]	the ratio of alcian blue positive cells increased	significantly promoted the production of the cartilage matrix	–	–
CCOC(CN1C(=O)[C@](CC(=O)Nc2ccc(C)cc2)(NC(=O)Nc2ccc(C)cc2)c2ccccc21)OCC [compound A]	the ratio of alcian blue positive cells increased	significantly promoted the production of the cartilage matrix	production of the matrix was enhanced	significantly promoted the production of the cartilage matrix
